# Active and inactive are the calls of the source. The calls are words filed in the database; no cut-off is given here.
# Experiments:
# [1] = biological target: Aurora kinase B (Homo sapiens) (UniProt Q96GD4); assay: Disruption of AURKB localization in human RPE-MYC transfected with GFP-H2B assessed as minimal effective concentration that induces mitotic arrest, polyploidy, cell death and cell number reduction by MIPS assay; format: cell-based
# [2] = biological target: Aurora kinase B (Homo sapiens) (UniProt Q96GD4); assay: Inhibition of Aurora kinase B in human RPE-MYC cells transfected with BCL2 assessed as inhibition of histone H3 phosphorylation at Ser10 residue at MEC for polyploidy measured after 6 hrs by immunofluorescence staining based analysis; format: cell-based
# [3] = biological target: Aurora kinase B (Homo sapiens) (UniProt Q96GD4); assay: Inhibition of Aurora kinase B in human RPE-MYC cells transfected with BCL2 assessed as inhibition of histone H3 phosphorylation at Ser10 residue at highest concentration measured after 6 hrs by immunofluorescence staining based analysis; format: cell-based
# [4] = biological target: Aurora kinase B (Homo sapiens) (UniProt Q96GD4); assay: Disruption of AURKB localization in human RPE-MYC cells transfected with BCL2 assessed as loss of localization of PLK1 at the spindle-midzone by immunofluorescence staining based analysis; format: cell-based
# [5] = biological target: Aurora kinase B (Homo sapiens) (UniProt Q96GD4); assay: Disruption of AURKB localization in human RPE-MYC cells transfected with BCL2 assessed as loss of localization of MKLP1 at the spindle-midzone by immunofluorescence staining based analysis; format: cell-based
# [6] = biological target: Aurora kinase B (Homo sapiens) (UniProt Q96GD4); assay: Disruption of AURKB localization in human RPE-MYC cells transfected with BCL2 assessed as mislocalization of AURKB at the spindle zone in anaphase cells by immunofluorescence staining based analysis; format: cell-based
# [7] = biological target: Aurora kinase B (Homo sapiens) (UniProt Q96GD4); assay: Disruption of AURKB localization in human RPE-MYC cells transfected with BCL2 assessed as loss of localization of microtubules at the spindle-midzone by immunofluorescence staining based analysis; format: cell-based
# [8] = biological target: T1, Aurora kinase A (Homo sapiens) (UniProt O14965); assay: Inhibition of Aurora kinase A in human RPE-MYC cells transfected with BCL2 assessed as inhibition of protein autophosphorylation at Thr288 residue by immunofluorescence staining based analysis; format: cell-based
# T1 sequence (whole entry): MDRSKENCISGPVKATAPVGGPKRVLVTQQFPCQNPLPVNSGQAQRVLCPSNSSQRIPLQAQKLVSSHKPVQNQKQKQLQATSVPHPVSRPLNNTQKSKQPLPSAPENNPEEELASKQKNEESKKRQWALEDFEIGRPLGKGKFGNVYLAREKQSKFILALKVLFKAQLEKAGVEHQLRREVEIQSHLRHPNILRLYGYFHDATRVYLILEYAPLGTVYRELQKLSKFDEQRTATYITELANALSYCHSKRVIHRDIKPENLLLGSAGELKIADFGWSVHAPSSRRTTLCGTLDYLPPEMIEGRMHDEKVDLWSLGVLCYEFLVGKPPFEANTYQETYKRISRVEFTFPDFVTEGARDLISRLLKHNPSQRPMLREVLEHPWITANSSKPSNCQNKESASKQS
# [9] = biological target: Aurora kinase B (Homo sapiens) (UniProt Q96GD4); assay: Inhibition of Aurora kinase B in human RPE-MYC cells transfected with BCL2 assessed as inhibition of histone H3 phosphorylation at Ser10 residue by immunofluorescence staining based analysis; format: cell-based
# [10] = biological target: Aurora kinase B (Homo sapiens) (UniProt Q96GD4); assay: Inhibition of Aurora kinase B in human RPE-MYC cells transfected with BCL2 assessed as inhibition of histone H3 phosphorylation at Ser10 residue at 200 nM measured after 6 hrs by immunofluorescence staining based analysis; format: cell-based
# [11] = Cmax in BALB/c mouse at 50 mg/kg, po compound formulated in PEG300 and administered as single dose by LC-MS/MS analysis; format: ADME, organism-based; design: dose 50 mg/kg, route po; details: in vivo
# [12] = Dose normalized AUC (0 to 6 hrs) in BALB/c mouse at 50 mg/kg, po compound formulated in PEG300 and administered as single dose by LC-MS/MS analysis; format: ADME, organism-based; details: in vivo
# [13] = biological target: Epithelial discoidin domain-containing receptor 1 (Homo sapiens) (UniProt Q08345); assay: Inhibition of DDR1 (unknown origin)
# Mus musculus [14] = assay: Induction of apoptosis in BALB/c mouse xenografted with human NCI-H23 cells assessed as increase in caspase-3 activation in tumor at 50 mg/kg, po bid for 7 days by immunohistochemical staining based analysis; format: functional, organism-based; details: time 7.0 day
# [15] = biological target: Aurora kinase B (Homo sapiens) (UniProt Q96GD4); assay: Disruption of AURKB localization in human RPE-MYC cells transfected with BCL2 assessed as localization of AURKB on kinetochore at 40 nM measured after 6 hrs by immunofluorescence staining based analysis; format: cell-based
# Mus musculus [16] = assay: Induction of mitotic arrest in BALB/c mouse xenografted with human NCI-H23 cells assessed as increase in mitotic index in tumor at 50 mg/kg, po bid for 7 days by immunohistochemical staining based analysis; format: functional, organism-based; details: time 7.0 day
# NCI-H23 [17] = assay: Antitumor activity against human NCI-H23 cells xenografted in BALB/c mouse assessed as suppression of tumor growth at 50 mg/kg, po bid for 7 days; format: functional, organism-based; details: time 7.0 day
# [18] = biological target: Aurora kinase B (Homo sapiens) (UniProt Q96GD4); assay: Disruption of AURKB localization in human RPE-MYC cells transfected with BCL2 assessed as localization of PLK1 at spindle poles at 40 nM measured after 6 hrs by immunofluorescence staining based analysis; format: cell-based
# [19] = biological target: Aurora kinase B (Homo sapiens) (UniProt Q96GD4); assay: Disruption of AURKB localization in human RPE-MYC cells transfected with BCL2 assessed as loss of localization of microtubules at the spindle-midzone at 40 nM measured after 6 hrs by immunofluorescence staining based analysis; format: cell-based
# [20] = biological target: T1, Aurora kinase A (Homo sapiens); assay: Inhibition of Aurora kinase A (unknown origin)
# [21] = test system: Phosphatidylinositol 4,5-bisphosphate 3-kinase catalytic subunit alpha isoform (Homo sapiens), P42336 [E545K]; assay: Inhibition of PI3KCA E545K mutant (unknown origin)
# [22] = biological target: Aurora kinase B (Homo sapiens) (UniProt Q96GD4); assay: Disruption of AURKB localization in human RPE-MYC cells transfected with BCL2 assessed as localization of PLK1 at mitotic centrosomes at 40 nM measured after 6 hrs by immunofluorescence staining based analysis; format: cell-based
# [23] = biological target: Aurora kinase B (Homo sapiens) (UniProt Q96GD4); assay: Disruption of AURKB localization in human RPE-MYC cells transfected with BCL2 assessed as mislocalization of AURKB at the spindle zone in anaphase cells at 40 nM measured after 6 hrs by immunofluorescence staining based analysis; format: cell-based
# [24] = biological target: Aurora kinase B (Homo sapiens) (UniProt Q96GD4); assay: Inhibition of Aurora kinase B in human RPE-MYC cells transfected with BCL2 assessed as inhibition of histone H3 phosphorylation at Ser10 residue at 40 nM measured after 6 hrs by immunofluorescence staining based analysis; format: cell-based
# [25] = biological target: Aurora kinase B (Homo sapiens) (UniProt Q96GD4); assay: Inhibition of Aurora kinase B (unknown origin)
# NCI-H23 [26] = assay: Antitumor activity against human NCI-H23 cells xenografted in BALB/c mouse assessed as reduction in cellular density in tumor at 50 mg/kg, po bid for 7 days by Hematoxylin and Eosin staining based analysis; format: functional, organism-based; details: time 7.0 day
# [27] = biological target: Aurora kinase B (Homo sapiens) (UniProt Q96GD4); assay: Disruption of AURKB localization in human RPE-MYC cells transfected with BCL2 assessed as loss of localization of PLK1 at the spindle-midzone at 40 nM measured after 6 hrs by immunofluorescence staining based analysis; format: cell-based
# [28] = biological target: Aurora kinase B (Homo sapiens) (UniProt Q96GD4); assay: Disruption of AURKB localization in human RPE-MYC cells transfected with BCL2 assessed as loss of localization of MKLP1 at the spindle-midzone at 40 nM measured after 6 hrs by immunofluorescence staining based analysis; format: cell-based
# Aurora kinase B (Homo sapiens), sequence (Q96GD4 whole entry): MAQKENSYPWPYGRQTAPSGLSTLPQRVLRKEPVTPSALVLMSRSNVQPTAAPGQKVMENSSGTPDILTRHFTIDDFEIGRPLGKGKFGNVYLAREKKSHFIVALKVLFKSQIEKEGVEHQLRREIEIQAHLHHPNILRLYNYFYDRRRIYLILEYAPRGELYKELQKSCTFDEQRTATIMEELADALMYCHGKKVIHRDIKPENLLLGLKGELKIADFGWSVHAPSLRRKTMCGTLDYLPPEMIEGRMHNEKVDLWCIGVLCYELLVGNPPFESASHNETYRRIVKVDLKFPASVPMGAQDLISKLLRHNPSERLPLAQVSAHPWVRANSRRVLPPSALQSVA
# Epithelial discoidin domain-containing receptor 1 (Homo sapiens), sequence (Q08345 whole entry, the tested form may be a part): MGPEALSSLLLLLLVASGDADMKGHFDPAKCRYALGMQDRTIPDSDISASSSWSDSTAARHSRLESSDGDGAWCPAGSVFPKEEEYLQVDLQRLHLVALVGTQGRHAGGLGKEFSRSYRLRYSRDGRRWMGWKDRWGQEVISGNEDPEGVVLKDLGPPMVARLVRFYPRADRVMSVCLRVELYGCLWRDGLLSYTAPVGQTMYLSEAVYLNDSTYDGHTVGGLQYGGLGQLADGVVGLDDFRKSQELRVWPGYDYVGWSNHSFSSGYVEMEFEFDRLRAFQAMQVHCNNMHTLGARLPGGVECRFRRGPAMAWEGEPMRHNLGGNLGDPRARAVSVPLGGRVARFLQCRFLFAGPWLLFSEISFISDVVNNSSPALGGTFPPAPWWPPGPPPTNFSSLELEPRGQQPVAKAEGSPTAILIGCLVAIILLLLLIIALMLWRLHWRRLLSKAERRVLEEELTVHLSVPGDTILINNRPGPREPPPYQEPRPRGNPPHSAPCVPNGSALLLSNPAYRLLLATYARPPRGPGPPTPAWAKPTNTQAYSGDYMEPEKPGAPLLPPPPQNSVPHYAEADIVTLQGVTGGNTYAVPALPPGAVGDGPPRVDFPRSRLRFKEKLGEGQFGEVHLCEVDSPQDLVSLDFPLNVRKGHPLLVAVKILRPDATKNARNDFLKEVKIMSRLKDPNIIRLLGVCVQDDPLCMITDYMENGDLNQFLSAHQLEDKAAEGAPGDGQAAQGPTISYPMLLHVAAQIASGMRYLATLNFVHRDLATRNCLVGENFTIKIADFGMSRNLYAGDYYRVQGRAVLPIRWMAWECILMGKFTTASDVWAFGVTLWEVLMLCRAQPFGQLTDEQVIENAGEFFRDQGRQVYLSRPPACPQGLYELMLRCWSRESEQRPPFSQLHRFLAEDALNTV
# Phosphatidylinositol 4,5-bisphosphate 3-kinase catalytic subunit alpha isoform (Homo sapiens), P42336 [E545K], sequence (P42336 whole entry E545K, canonical isoform): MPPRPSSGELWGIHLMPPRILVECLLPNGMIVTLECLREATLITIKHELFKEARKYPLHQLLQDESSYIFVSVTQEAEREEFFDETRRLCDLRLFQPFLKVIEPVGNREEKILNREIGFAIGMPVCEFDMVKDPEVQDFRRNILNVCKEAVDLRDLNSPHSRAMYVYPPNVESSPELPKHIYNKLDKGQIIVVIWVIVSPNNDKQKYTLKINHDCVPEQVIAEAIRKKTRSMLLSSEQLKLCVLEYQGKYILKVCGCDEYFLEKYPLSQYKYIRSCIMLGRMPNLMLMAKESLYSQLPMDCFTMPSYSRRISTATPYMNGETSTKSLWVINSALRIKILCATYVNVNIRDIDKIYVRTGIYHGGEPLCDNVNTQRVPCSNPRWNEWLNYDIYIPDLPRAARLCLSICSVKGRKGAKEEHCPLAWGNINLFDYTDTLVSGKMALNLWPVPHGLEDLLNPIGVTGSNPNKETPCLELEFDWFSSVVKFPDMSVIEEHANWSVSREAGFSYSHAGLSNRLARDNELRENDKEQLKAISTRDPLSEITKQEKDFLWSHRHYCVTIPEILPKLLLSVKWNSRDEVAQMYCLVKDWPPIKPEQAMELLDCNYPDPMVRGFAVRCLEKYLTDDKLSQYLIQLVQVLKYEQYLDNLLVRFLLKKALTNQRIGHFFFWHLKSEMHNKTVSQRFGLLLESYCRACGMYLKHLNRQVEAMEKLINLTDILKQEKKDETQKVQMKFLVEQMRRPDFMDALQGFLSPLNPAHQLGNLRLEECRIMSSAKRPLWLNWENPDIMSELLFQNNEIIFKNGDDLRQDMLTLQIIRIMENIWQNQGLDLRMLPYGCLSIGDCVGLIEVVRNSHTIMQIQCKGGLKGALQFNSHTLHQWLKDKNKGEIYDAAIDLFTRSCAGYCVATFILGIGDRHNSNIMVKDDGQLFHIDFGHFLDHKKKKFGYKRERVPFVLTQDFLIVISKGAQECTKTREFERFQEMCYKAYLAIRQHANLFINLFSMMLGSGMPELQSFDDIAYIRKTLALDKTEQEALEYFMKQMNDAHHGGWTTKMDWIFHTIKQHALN
smiles,measurement,setting,value
COC(=O)c1cccc(Oc2ncccc2-c2ccnc(N)n2)c1,MEC,[1],0.85 µM
COc1cc(NC(C)=O)cc(Oc2ncccc2-c2ccnc(OC)c2)c1,inhibition,[2],Active
same,inhibition,[3],< 68%
same,MEC,[1],0.03 µM
same,Activity,[4],Active
same,Activity,[5],Active
same,Activity,[6],Active
same,Activity,[7],Active
COc1cc(OC)cc(Oc2ncccc2-c2ccccc2)c1,MEC,[1],2.08 µM
CNC(=O)c1cc(Oc2ncccc2-c2ccncc2)cc(OC(F)(F)F)c1,MEC,[1],0.16 µM
COc1cc(OC)cc(Oc2ncccc2-c2ccnc(OC)c2)c1,inhibition,[8],inactive
same,MEC,[1],0.07 µM
same,inhibition,[9],inactive
COc1cc(OC)cc(Oc2ncccc2-c2ccncn2)c1,MEC,[1],0.75 µM
COc1cc(OC)cc(Oc2ncccc2-c2cccc(N)n2)c1,MEC,[1],0.96 µM
COc1cccc(Oc2ncccc2-c2ccnc(N)n2)c1,MEC,[1],1.5 µM
Nc1cccc(Oc2ncccc2-c2ccnc(N)n2)c1,MEC,[1],20 µM
CNC(=O)c1cc(OC)cc(Oc2ncccc2-c2ccnc(OC)c2)c1,inhibition,[2],inactive
same,MEC,[1],0.03 µM
same,Activity,[4],Active
same,Activity,[5],Active
same,Activity,[6],Active
same,Activity,[7],Active
COc1cc(OC)cc(Oc2ncccc2-c2ccncc2)c1,MEC,[1],0.14 µM
COc1ccc(Oc2ncccc2-c2ccnc(N)n2)cc1,MEC,[1],> 20 µM
CCN(CCCOc1ccc2c(Nc3cc(CC(=O)Nc4cccc(F)c4)[nH]n3)ncnc2c1)CCOP(=O)(O)O,inhibition,[10],100%
COc1cc(Oc2ncccc2-c2ccncc2)cc(-c2nc(C)no2)c1,MEC,[1],0.42 µM
COc1cc(OC)cc(Oc2ncccc2-c2ccnc(C)n2)c1,MEC,[1],1.29 µM
COc1cc(OC)cc(Oc2ncccc2-c2ccnc(N)c2)c1,MEC,[1],0.28 µM
COc1cc(OC)cc(Oc2ncccc2-c2cccnc2)c1,MEC,[1],0.91 µM
COC(=O)c1cc(OC)cc(Oc2ncccc2-c2ccnc(N)n2)c1,MEC,[1],0.03 µM
COC(=O)c1cc(OC)cc(Oc2ncccc2-c2ccncc2)c1,MEC,[1],0.02 µM
CNC(=O)c1cc(Oc2ncccc2-c2ccnc(C)c2)cc(OC(F)(F)F)c1,inhibition,[2],inactive
same,Cmax,[11],14.4 µM
same,MEC,[1],0.12 µM
same,AUC/dose,[12],0.72 µM·h/mg/kg
same,Activity,[4],Active
same,Activity,[5],Active
same,Activity,[6],Active
same,Activity,[7],Active
COc1cc(OC)cc(Oc2ncccc2-c2ccnc(C)c2)c1,inhibition,[8],inactive
same,MEC,[1],0.08 µM
same,inhibition,[9],inactive
CNC(=O)c1cc(OC)cc(Oc2ncccc2-c2ccnc(C)c2)c1,MEC,[1],0.12 µM
COC(=O)c1ccc(Oc2ncccc2-c2ccnc(N)n2)cc1,MEC,[1],> 20 µM
COc1cc(NC(C)=O)cc(Oc2ncccc2-c2ccncc2)c1,inhibition,[2],inactive
same,inhibition,[13],Active
same,MEC,[1],0.11 µM
same,Activity,[4],Active
same,Activity,[5],Active
same,Activity,[6],Active
same,Activity,[7],Active
CNC(=O)c1cc(Oc2ncccc2-c2ccnc(OC)c2)cc(OC(F)(F)F)c1,inhibition,[2],Active
same,Activity,Mus musculus [14],Active
same,inhibition,[3],< 68%
same,Cmax,[11],6.9 µM
same,Activity,[15],inactive
same,Activity,Mus musculus [16],Active
same,Activity,NCI-H23 [17],Active
same,MEC,[1],0.02 µM
same,Activity,[18],inactive
same,Activity,[19],Active
same,inhibition,[20],inactive
same,inhibition,[21],Active
same,AUC/dose,[12],0.35 µM·h/mg/kg
same,Activity,[22],inactive
same,Activity,[23],Active
same,inhibition,[24],Active
same,inhibition,[25],inactive
same,Activity,NCI-H23 [26],Active
same,Activity,[27],Active
same,Activity,[28],Active
COc1cc(Oc2ncccc2-c2ccncc2)cc(C(=O)N(C)C)c1,MEC,[1],2.08 µM
Nc1nccc(-c2cccnc2Oc2ccccc2)n1,MEC,[1],> 20 µM
CNC(=O)c1cc(OC)cc(Oc2ncccc2-c2ccncc2)c1,MEC,[1],0.47 µM
COc1cc(OC)cc(Oc2ncccc2-c2ccnc(N)n2)c1,MEC,[1],0.37 µM
COc1cc(NC(C)=O)cc(Oc2ncccc2-c2ccnc(C)c2)c1,inhibition,[2],inactive
same,MEC,[1],0.07 µM
same,Activity,[4],Active
same,Activity,[5],Active
same,Activity,[6],Active
same,Activity,[7],Active
Nc1ccc(Oc2ncccc2-c2ccnc(N)n2)cc1,MEC,[1],5 µM

# Source: ChEMBL document CHEMBL5385867, “2-Phenoxy-3, 4'-bipyridine derivatives inhibit AURKB-dependent mitotic processes by disrupting its localization” (Eur J Med Chem, 2023)
